Test results from ChEMBL document CHEMBL4321846, “Discovery of a Potent and Selective Oral Inhibitor of ERK1/2 (AZD0364) That Is Efficacious in Both Monotherapy and Combination Therapy in Models of Nonsmall Cell Lung Cancer (NSCLC)” (J Med Chem, 2019).
Active and inactive are the calls of the source. The rule behind the calls is not given here.

Key:
[1] = biological target: Mitogen-activated protein kinase 3 (Homo sapiens) (UniProt P27361); test: Inhibition of GST-tagged recombinant human full length ERK1 expressed in Escherichia coli at 1 uM relative to control
Mitogen-activated protein kinase 3 (Homo sapiens), sequence (P27361 whole entry): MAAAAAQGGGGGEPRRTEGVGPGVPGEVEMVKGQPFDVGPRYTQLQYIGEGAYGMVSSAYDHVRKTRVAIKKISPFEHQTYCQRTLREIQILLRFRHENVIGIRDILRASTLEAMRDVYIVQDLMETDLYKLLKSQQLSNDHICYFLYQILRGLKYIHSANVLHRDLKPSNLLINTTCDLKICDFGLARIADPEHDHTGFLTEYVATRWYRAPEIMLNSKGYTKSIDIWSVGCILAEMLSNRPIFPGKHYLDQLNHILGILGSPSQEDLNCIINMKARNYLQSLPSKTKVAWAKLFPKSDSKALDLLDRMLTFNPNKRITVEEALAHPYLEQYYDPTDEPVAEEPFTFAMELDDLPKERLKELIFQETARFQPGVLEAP

[2] = Volume of distribution at steady state in dog; type: ADME, Canis lupus familiaris; settings: in vivo, read-out: Vdss
[3] = biological target: Dual specificity mitogen-activated protein kinase kinase 2 (Homo sapiens) (UniProt P36507); test: Inhibition of recombinant full length his-tagged human MEK2 expressed in baculovirus expression system at 1 uM by GST-tagged full length human inactive ERK2 expressed in baculovirus expression system coupled cascade assay relative to control
Dual specificity mitogen-activated protein kinase kinase 2 (Homo sapiens), sequence (P36507 whole entry): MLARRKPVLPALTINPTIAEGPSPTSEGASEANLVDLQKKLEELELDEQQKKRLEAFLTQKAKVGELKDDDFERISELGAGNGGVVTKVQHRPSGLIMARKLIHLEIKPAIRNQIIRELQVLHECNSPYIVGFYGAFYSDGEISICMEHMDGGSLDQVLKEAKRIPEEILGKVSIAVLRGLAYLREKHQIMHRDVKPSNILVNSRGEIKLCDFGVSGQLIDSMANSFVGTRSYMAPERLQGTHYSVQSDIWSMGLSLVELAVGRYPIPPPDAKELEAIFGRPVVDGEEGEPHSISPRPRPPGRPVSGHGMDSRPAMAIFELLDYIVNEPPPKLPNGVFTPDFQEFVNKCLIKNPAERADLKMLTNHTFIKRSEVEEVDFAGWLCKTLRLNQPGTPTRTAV

[4] = Oral bioavailability in rat; type: ADME, organism-based; settings: in vivo
[5] = biological target: Mitogen-activated protein kinase kinase kinase 8 (Homo sapiens) (UniProt P41279); test: Inhibition of recombinant GST-tagged human COT catalytic domain expressed in baculovirus expression system at 1 uM by GST-tagged full length human inactive ERK2 expressed in baculovirus expression system coupled cascade assay relative to control
Mitogen-activated protein kinase kinase kinase 8 (Homo sapiens), sequence (P41279 whole entry, the tested form may be a part): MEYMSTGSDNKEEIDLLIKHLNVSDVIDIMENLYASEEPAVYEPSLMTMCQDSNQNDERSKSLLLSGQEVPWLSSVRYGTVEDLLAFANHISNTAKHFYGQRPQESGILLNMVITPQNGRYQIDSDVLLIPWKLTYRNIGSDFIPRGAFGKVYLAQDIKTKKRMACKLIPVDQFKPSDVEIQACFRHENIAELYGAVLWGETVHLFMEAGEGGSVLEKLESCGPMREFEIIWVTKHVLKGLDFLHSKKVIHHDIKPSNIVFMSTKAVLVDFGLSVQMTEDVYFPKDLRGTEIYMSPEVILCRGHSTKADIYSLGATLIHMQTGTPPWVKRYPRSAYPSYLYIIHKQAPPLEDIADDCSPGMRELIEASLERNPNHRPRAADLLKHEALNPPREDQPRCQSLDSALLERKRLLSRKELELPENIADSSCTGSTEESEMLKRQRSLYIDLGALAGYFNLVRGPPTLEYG

[6] = biological target: T1, Mitogen-activated protein kinase; ERK1/ERK2 (Homo sapiens, UniProt P27361+P28482); test: Inhibition of ERK1/2 in human A375 cells assessed as inhibition of ERK phosphorylation after 2 hrs; type: cell-based
[7] = biological target: T2, Mitogen-activated protein kinase 1 (Homo sapiens, UniProt P28482); test: Inhibition of MEK U911-activated ERK2 (unknown origin) using ERKtide as substrate preincubated for 20 mins followed by substrate addition in presence of ATP at Km concentration after 20 mins by rapidfire mass spectrometry analysis
T2 sequence (P28482 whole entry): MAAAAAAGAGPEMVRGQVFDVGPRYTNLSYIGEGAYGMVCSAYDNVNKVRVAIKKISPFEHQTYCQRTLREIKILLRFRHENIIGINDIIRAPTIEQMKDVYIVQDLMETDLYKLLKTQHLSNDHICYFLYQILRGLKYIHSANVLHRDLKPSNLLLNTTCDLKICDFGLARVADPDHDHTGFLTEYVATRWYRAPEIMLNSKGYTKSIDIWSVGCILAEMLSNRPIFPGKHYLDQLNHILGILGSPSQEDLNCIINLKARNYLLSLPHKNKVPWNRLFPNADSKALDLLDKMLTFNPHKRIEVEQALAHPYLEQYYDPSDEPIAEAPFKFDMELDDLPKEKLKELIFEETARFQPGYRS

[8] = biological target: Cyclin-dependent kinase 2/cyclin E1 (Homo sapiens) (UniProt P24864+P24941); test: Inhibition of human full length C-terminal His6-tagged Cdk2/human full length N-terminal GST-tagged Cyclin E expressed in baculovirus infected Sf21 insect cells at 1 uM after 1 hr by electromobility shift assay relative to control
[9] = biological target: T1, Mitogen-activated protein kinase; ERK1/ERK2; test: Inhibition of ERK1/2 in human A375 cells assessed as inhibition of RSK phosphorylation after 2 hrs; type: cell-based
[10] = Fraction unbound in dog plasma; type: ADME, cell-free, Canis lupus familiaris
A-375 = test: Antiproliferative activity at human A375 cells expressing BRAF V600E mutant assessed as growth inhibition; type: functional
[11] = Volume of distribution at steady state in rat; type: ADME; settings: in vivo, read-out: Vdss
Mus musculus [12] = test: Reduction in phosphorylated RSK level in athymic Nude-Foxn1nu mouse xenografted with human Calu6 cells expressing KRAS Q61K mutant at 25 mg/kg, po qd adminstered for 21 days and measured after 0.5 hrs post dose by Western blot analysis relative to control; type: functional; settings: Calu-6, po
[13] = biological target: T3, Cyclin-dependent kinase 5/CDK5 activator 1 (Homo sapiens, UniProt Q00535); test: Inhibition of recombinant full length human His-tagged CDK5/p35 expressed in baculovirus expression system
T3 sequence (Q00535 whole entry): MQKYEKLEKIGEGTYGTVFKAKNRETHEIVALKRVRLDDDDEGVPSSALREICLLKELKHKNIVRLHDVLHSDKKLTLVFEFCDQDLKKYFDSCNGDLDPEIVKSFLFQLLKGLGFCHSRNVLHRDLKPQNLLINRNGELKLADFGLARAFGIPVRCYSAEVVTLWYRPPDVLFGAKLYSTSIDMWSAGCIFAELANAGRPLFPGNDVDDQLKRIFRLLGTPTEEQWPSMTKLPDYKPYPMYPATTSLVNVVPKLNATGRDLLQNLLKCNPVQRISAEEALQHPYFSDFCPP
T3 sequence (Q15078 whole entry, further chain): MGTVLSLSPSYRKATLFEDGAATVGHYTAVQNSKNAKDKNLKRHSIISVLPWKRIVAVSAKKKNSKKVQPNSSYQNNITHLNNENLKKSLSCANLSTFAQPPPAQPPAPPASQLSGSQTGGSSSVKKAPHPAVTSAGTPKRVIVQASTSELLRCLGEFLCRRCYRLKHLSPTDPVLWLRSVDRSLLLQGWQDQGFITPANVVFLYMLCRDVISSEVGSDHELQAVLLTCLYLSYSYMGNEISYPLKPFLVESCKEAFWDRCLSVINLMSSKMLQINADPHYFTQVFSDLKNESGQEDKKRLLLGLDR

[14] = Half life in po dosed rat; type: ADME, organism-based; settings: in vivo
[15] = biological target: CDK2/Cyclin A1 (Homo sapiens) (UniProt P24941+P78396); test: Inhibition of recombinant human full length His-tagged CDK2/Cyclin A expressed in baculovirus expression system at 1 uM relative to control
[16] = biological target: Mitogen-activated protein kinase 15 (Homo sapiens) (UniProt Q8TD08); test: Binding affinity to recombinant human N-terminal 4xFLAG-tagged/C-terminal His8-fused ERK7 N-terminal domain (M1 to R354 residues) expressed in Sf9 insect cells
Mitogen-activated protein kinase 15 (Homo sapiens), sequence (Q8TD08 whole entry, the tested form may be a part): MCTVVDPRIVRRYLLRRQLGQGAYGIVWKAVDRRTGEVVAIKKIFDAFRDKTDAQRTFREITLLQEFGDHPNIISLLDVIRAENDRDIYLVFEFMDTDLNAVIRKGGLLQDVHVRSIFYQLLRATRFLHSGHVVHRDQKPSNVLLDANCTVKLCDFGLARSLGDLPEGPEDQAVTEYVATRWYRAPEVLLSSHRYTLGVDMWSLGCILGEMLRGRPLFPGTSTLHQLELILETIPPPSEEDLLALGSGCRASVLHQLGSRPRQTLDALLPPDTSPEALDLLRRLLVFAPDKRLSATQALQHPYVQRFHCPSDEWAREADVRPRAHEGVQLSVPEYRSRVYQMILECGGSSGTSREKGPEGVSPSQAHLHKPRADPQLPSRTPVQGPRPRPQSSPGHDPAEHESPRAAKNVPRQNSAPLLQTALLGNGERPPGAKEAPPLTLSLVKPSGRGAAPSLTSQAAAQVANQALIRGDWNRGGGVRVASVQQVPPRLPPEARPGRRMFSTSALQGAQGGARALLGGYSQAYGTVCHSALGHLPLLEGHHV

[17] = biological target: Dual specificity mitogen-activated protein kinase kinase 2 (Homo sapiens) (UniProt P36507); test: Inhibition of recombinant full length his-tagged human MEK2 expressed in baculovirus expression system at 1 uM relative to control
[18] = biological target: Dual specificity mitogen-activated protein kinase kinase 1 (Homo sapiens) (UniProt Q02750); test: Inhibition of recombinant full length His-tagged human MEK1 expressed in baculovirus expression system at 1 uM relative to control
Dual specificity mitogen-activated protein kinase kinase 1 (Homo sapiens), sequence (Q02750 whole entry): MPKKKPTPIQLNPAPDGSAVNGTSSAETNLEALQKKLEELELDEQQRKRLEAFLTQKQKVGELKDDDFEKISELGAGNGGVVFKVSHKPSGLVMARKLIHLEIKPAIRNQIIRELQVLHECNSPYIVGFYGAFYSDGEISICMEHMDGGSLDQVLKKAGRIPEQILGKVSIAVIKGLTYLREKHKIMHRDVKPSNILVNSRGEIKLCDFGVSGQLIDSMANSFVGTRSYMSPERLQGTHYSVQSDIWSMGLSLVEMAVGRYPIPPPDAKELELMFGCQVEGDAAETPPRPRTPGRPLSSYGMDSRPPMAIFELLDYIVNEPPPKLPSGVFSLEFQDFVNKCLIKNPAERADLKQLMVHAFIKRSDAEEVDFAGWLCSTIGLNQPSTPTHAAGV

[19] = biological target: T2, Mitogen-activated protein kinase 1
[20] = biological target: Mitogen-activated protein kinase 15 (Homo sapiens) (UniProt Q8TD08); test: Inhibition of recombinant human N-terminal 4xFLAG-tagged/C-terminal His8-fused ERK7 N-terminal domain (M1 to R354 residues) expressed in Sf9 insect cells at 1 uM relative to control
[21] = biological target: NUAK family SNF1-like kinase 1 (Homo sapiens) (UniProt O60285); test: Inhibition of recombinant full length human His-tagged ARK5 expressed in baculovirus expression system at 1 uM relative to control
NUAK family SNF1-like kinase 1 (Homo sapiens), sequence (O60285 whole entry): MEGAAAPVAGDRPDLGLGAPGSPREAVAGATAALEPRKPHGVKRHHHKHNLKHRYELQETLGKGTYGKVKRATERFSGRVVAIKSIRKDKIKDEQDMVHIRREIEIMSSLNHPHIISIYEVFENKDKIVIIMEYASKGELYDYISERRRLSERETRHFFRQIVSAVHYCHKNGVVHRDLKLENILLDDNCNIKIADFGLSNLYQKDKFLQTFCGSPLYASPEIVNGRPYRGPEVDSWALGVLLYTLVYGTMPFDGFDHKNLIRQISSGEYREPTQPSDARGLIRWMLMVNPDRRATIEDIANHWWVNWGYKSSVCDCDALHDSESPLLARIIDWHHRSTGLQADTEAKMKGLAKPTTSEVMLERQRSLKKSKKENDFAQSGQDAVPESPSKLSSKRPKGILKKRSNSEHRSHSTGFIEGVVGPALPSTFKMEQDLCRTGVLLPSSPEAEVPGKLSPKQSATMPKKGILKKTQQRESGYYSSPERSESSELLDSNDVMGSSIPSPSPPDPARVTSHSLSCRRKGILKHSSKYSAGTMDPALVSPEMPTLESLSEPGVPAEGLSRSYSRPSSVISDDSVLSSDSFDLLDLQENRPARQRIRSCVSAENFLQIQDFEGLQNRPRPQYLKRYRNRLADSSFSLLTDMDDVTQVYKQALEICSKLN

[22] = biological target: T2, Mitogen-activated protein kinase 1; remark: listed apart in the source
Calu-6 = test: Antitumor activity against human Calu6 cells expressing KRAS Q61K mutant xenografted in athymic Nude-Foxn1nu mouse assessed as tumor growth inhibition at 15 mg/kg, po qd adminstered for 21 days and measured twice per week by caliper method relative to control; type: functional; settings: Calu-6, po, 504 h, read-out: TGI
[23] = biological target: T2, Mitogen-activated protein kinase 1; test: Binding affinity to non-phosphorylated biotinylated ERK2 (unknown origin) by SPR analysis
[24] = biological target: Dual specificity mitogen-activated protein kinase kinase 1 (Homo sapiens) (UniProt Q02750); test: Inhibition of recombinant full length His-tagged human MEK1 expressed in baculovirus expression system at > 10 uM
[25] = biological target: T2, Mitogen-activated protein kinase 1; remark: listed apart in the source
[26] = biological target: NUAK family SNF1-like kinase 1 (Homo sapiens, UniProt O60285); test: Inhibition of recombinant full length human His-tagged ARK5 expressed in baculovirus expression system
NUAK family SNF1-like kinase 1, sequence (O60285 whole entry, the tested form may be a part): as the sequence (O60285 whole entry) above

[27] = test system: RAF proto-oncogene serine/threonine-protein kinase (Homo sapiens), P04049 [Y340D,Y341D]; test: Inhibition of recombinant human GST-tagged c-RAF1 Y340D/Y341D mutant catalytic domain expressed in baculovirus expression system at 1 uM relative to control
RAF proto-oncogene serine/threonine-protein kinase (Homo sapiens), P04049 [Y340D,Y341D], sequence (P04049 whole entry Y340D/Y341D, the tested form may be a part): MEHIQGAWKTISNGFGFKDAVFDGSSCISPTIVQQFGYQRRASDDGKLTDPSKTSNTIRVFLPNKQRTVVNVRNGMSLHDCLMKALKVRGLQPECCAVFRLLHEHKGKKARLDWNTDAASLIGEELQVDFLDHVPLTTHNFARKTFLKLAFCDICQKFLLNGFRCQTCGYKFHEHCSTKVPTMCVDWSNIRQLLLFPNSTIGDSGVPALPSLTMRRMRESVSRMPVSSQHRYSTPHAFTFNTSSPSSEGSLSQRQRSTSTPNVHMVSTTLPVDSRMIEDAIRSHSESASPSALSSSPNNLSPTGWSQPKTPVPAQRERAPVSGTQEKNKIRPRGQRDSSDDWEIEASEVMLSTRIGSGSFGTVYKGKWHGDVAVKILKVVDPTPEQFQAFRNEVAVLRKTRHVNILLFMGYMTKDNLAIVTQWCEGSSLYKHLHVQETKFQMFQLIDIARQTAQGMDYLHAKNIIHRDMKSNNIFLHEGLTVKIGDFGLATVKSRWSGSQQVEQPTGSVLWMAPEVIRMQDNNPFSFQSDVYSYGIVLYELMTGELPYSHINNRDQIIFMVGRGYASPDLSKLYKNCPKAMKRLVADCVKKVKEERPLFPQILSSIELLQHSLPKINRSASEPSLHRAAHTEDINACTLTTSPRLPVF

[28] = biological target: Cyclin-dependent kinase 5 (Homo sapiens) (UniProt Q00535); test: Binding affinity to recombinant human GST-tagged inactive CDK5
Cyclin-dependent kinase 5 (Homo sapiens), sequence (Q00535 whole entry, looked up): as the sequence (Q00535 whole entry) above

[29] = biological target: T2, Mitogen-activated protein kinase 1; remark: listed apart in the source
[30] = biological target: Dual specificity mitogen-activated protein kinase kinase 1 (Homo sapiens) (UniProt Q02750); test: Inhibition of recombinant full length His-tagged human MEK1 expressed in baculovirus expression system at 1 uM by GST-tagged full length human inactive ERK2 coupled cascade assay relative to control
[31] = Fraction unbound in human plasma; type: ADME, cell-free
[32] = biological target: T2, Mitogen-activated protein kinase 1; test: Inhibition of MEK U911-activated ERK2 (unknown origin) using ERKtide as substrate preincubated for 20 mins followed by substrate addition in presence of 1 mM ATP after 10 mins by rapidfire mass spectrometry analysis
[33] = biological target: T3, Cyclin-dependent kinase 5/CDK5 activator 1; test: Inhibition of recombinant full length human GST/His-tagged CDK5/p25 expressed in baculovirus expression system
Mus musculus [34] = test: Reduction in phosphorylated RSK level in athymic Nude-Foxn1nu mouse xenografted with human Calu6 cells expressing KRAS Q61K mutant at 25 mg/kg, po qd adminstered for 21 days and measured after 6 hrs post dose by Western blot analysis relative to control; type: functional; settings: Calu-6, po
[35] = test system: RAF proto-oncogene serine/threonine-protein kinase (Homo sapiens), P04049 [Y340D,Y341D]; test: Inhibition of recombinant human GST-tagged c-RAF1 Y340D/Y341D mutant catalytic domain expressed in baculovirus expression system at 1 uM by GST-tagged full length human inactive ERK2 expressed in baculovirus expression system coupled cascade assay relative to control
[36] = Fraction unbound in rat plasma; type: ADME, cell-free

Q: For COC[C@H]1Cn2cc(-c3nc(Nc4ccnn4C)ncc3C)nc2C(=O)N1Cc1ccc(F)c(F)c1 [TIZATERKIB], which inhibition [1] is on record?
A: The inhibition was 105%.

Q: And the Vd [2]?
A: The Vd was 1.2 L/kg.

Q: And the inhibition [3]?
A: The inhibition was 101%.

Q: And the bioavailability [4]?
A: The bioavailability was 30%.

Q: And the inhibition [5]?
A: Its inhibition is 103%.

Q: And the IC50 [6]?
A: Its IC50 is 0.0017 µM.

Q: What about the IC50 [7] of the same compound?
A: Its IC50 is < 0.0003 µM.

Q: What about the inhibition [8] of the same compound?
A: Its inhibition is 89%.

Q: And the IC50 [9]?
A: The IC50 was 0.0057 µM.

Q: And the fraction unbound [10]?
A: The fraction unbound was 0.44.

Q: And the GI50 (A-375)?
A: The GI50 was 0.06 µM.

Q: What about the Vd [11] of the same compound?
A: The Vd was 1.5 L/kg.

Q: What about the inhibition in vivo at 25 mg/kg (Mus musculus [12]) of the same compound?
A: The inhibition in vivo at 25 mg/kg was 100%.

Q: And the IC50 [13]?
A: The IC50 was 0.3 µM.

Q: What about the half-life [14] of the same compound?
A: The half-life was 2.3 h.

Q: And the inhibition [15]?
A: The inhibition was 87%.

Q: And the Activity [16]?
A: The Activity was 0.03 µM.

Q: What about the inhibition [17] of the same compound?
A: The inhibition was -2.2%.

Q: What about the inhibition [18] of the same compound?
A: Its inhibition is -2.5%.

Q: What about the Ka [19] of the same compound?
A: The Ka was 8.9 ×10⁻⁵ /M/s.

Q: What about the inhibition [20] of the same compound?
A: The inhibition was 99%.

Q: What about the inhibition [21] of the same compound?
A: The inhibition was 80%.

Q: And the Kdiss [22]?
A: Its Kdiss is 6 ×10⁻⁵ /s.

Q: What about the inhibition in vivo at 15 mg/kg (Calu-6) of the same compound?
A: Its inhibition in vivo at 15 mg/kg is 93%.

Q: What about the Kd [23] of the same compound?
A: Its Kd is 0.0001 µM.

Q: What about the inhibition [24] of the same compound?
A: The inhibition was “inactive”.

Q: And the Ka [25]?
A: Its Ka is 6.5 ×10⁻⁵ /M/s.

Q: What about the IC50 [26] of the same compound?
A: Its IC50 is 0.4 µM.

Q: What about the inhibition [27] of the same compound?
A: The inhibition was -3.5%.

Q: And the Activity [28]?
A: Its Activity is 1.9 µM.

Q: And the T1/2 [29]?
A: Its T1/2 is 3.23 h.

Q: And the inhibition [30]?
A: Its inhibition is 104%.

Q: What about the fraction unbound [31] of the same compound?
A: Its fraction unbound is 0.06 to 0.27.

Q: What about the IC50 [32] of the same compound?
A: Its IC50 is 0.00066 µM.

Q: And the IC50 [33]?
A: Its IC50 is 0.3 µM.

Q: What about the inhibition in vivo at 25 mg/kg (Mus musculus [34]) of the same compound?
A: Its inhibition in vivo at 25 mg/kg is 100%.

Q: And the inhibition [35]?
A: Its inhibition is 101%.

Q: And the fraction unbound [36]?
A: Its fraction unbound is 0.21.
